The results in this text go back to PubChem BioAssay AID1996.

Molecules are shown by their SMILES. Values after ≈ are worked out from the molar mass of the structure shown. A value given as a limit tells only on which side of the number the result lay.

The conditions of the series: buffer; pH 7.4; 200.0 µM.
One may read the solubility (kinetic) as the concentration staying in solution when a stock, usually in DMSO, is diluted into the medium. Compound `CC1C(=O)Nc2ccccc2N1C(=O)c1ccc(O)cc1` (configuration not stated) displayed a kinetic solubility of over 42.3 µg/mL. In the case of `CCC(=O)Nc1ccc(NC(=O)CCc2ccccc2)cn1` it was 44.5 µg/mL (≈ 150 µM); in that of `O=C(CSc1ccccc1)NCCCc1ccccc1`, over 42.8 µg/mL. With `O=C(/C=C/c1ccc(Cl)c([N+](=O)[O-])c1)c1cccnc1`, the solubility (kinetic) amounted to 2.2 µg/mL (≈ 7.62 µM). For `COc1cccc(OC)c1C1=NC(C)(C)CO1` the value was over 35.3 µg/mL. For `Cc1ccccc1CCNCc1cc2cccc(C)c2[nH]c1=O` the value was over 46 µg/mL. In the case of `O=C1/C(=C/c2ccccn2)SC(=S)N1Cc1ccccc1` it was under 0.3 µg/mL; in that of `COc1ccc(-c2cc(=O)[nH]c3ccccc23)cc1`, 4.6 µg/mL (≈ 18.3 µM). Compound `COc1cc(/C=C/c2onc(C)c2[N+](=O)[O-])cc(OC)c1OC` showed a solubility (kinetic) of under 0.3 µg/mL.

For the compound `O=Cc1c(Cl)nc2ccccn2c1=O`, the kinetic solubility was over 31.3 µg/mL. In the case of `CC(C)C(=O)N1CCN(c2nc3ccc(Cl)cc3s2)CC1` it was over 48.6 µg/mL.

Take `CC(C)Cc1ccc(C(=O)NCc2ccc3c(c2)OCO3)o1`: the solubility (kinetic) was 28.3 µg/mL (≈ 93.9 µM). In the case of `O=C(c1ccccc1Oc1ccc([N+](=O)[O-])cc1)N1CCOCC1` it was over 49.2 µg/mL; in that of `CC1CCCCN1S(=O)(=O)c1ccc([N+](=O)[O-])cc1` (configuration not stated), 22.5 µg/mL (≈ 79.1 µM); in that of `Cc1ccc(C#N)c(SCCN2CCCCC2)n1`, 32.4 µg/mL (≈ 124 µM). `Cl.O=[N+]([O-])c1ccc(N2CCCNCC2)c2ncccc12` gave a solubility (kinetic) of 36.7 µg/mL. For `CC1CC(C)(C)NC(=S)N1CCC(=O)NCc1ccc(F)cc1` (configuration not stated) the value was over 50.6 µg/mL.

With `CCN1CCN(c2oc(-c3ccco3)nc2C#N)CC1`, the kinetic solubility turned out to be 35.9 µg/mL (≈ 132 µM). In the case of `Cc1ccc(N2CC(O)Cn3c2nc2c3c(=O)n(C)c(=O)n2C)cc1` (configuration not stated) it was 24.5 µg/mL (≈ 71.8 µM); in that of `On1c(-c2ccccc2)nc2ccccc21`, over 31.5 µg/mL; in that of `Cc1ccc(C(=O)Nc2nccs2)cc1`, 16.5 µg/mL (≈ 75.6 µM).

`Cc1ccc(S(=O)(=O)N2CCOCC2)cc1NC(=O)COC(=O)COc1ccccc1[N+](=O)[O-]` had a kinetic solubility of 72.2 µg/mL (≈ 146 µM). For `COc1ccc(C=O)cc1CSc1ncccc1C(=O)O` the value was over 45.5 µg/mL; for `CCCCCCNC(=O)Cc1ccc(Br)cc1`, 5 µg/mL (≈ 16.8 µM). In the case of `Cc1c(N2C(=O)c3cccc4cccc(c34)C2=O)cnn1C` it was over 43.7 µg/mL. For `Cc1nc(NCCOc2ccccc2)sc1C(=O)Nc1ccccc1` the value was 2 µg/mL (≈ 5.66 µM). The compound `O=C(O)C(=O)O.c1ccc(OCCN2CCOCC2)cc1` gave a solubility (kinetic) of over 44.6 µg/mL. In the case of `Cc1cc(SCc2ccccc2F)nc(=O)[nH]1` it was over 37.5 µg/mL. With `Cc1occc1C(=O)Nc1ccc([N+](=O)[O-])cc1Br`, the solubility (kinetic) was found to be 1.7 µg/mL (≈ 5.23 µM).

`O=C(Nc1ccc2c(c1)OCO2)c1ccc(CO)cc1` gave a solubility (kinetic) of over 40.7 µg/mL.

On to `O=C(Nc1ccc(F)cc1)c1cc2c(s1)CCCC2`, for which the kinetic solubility is under 0.6 µg/mL.

On to `CC(C)c1ccc([N+](=O)[O-])cc1S(=O)(=O)N1CCN(C)CC1`, for which the kinetic solubility is over 49.1 µg/mL. Take `CC1CCCCC12NC(=O)N(CC(=O)Nc1nccs1)C2=O` (configuration not stated): the kinetic solubility is over 48.4 µg/mL. For `O=C(O)C1C2C=CC(O2)C1C(=O)Nc1cccc(C(F)(F)F)c1` (configuration not stated) the value was over 49.1 µg/mL; for `Cc1cccc(NC(=O)CCS(=O)(=O)c2ccccc2)c1`, over 45.5 µg/mL; for `CC(C)CN(C(=O)CSc1nc2ccccc2c(=O)[nH]1)c1c(N)n(CC(C)C)c(=O)[nH]c1=O`, 10.5 µg/mL (≈ 22.2 µM). `COc1ccc2[nH]c(C(=O)N3CCN(Cc4ccccc4)CC3)cc2c1OC` showed a kinetic solubility of 51.8 µg/mL (≈ 137 µM). For `CC(C)(C)c1ccccc1NC(=S)NC1CCCC1` the value was 30.9 µg/mL (≈ 112 µM). In the case of `CC(=O)Nc1ccc(SCC(=O)Nc2sccc2C#N)cc1` it was 26.5 µg/mL (≈ 80 µM). In the case of `O=C1c2ccccc2C(=O)N1Cc1ccccc1F` it was 1.5 µg/mL (≈ 5.88 µM). With `Cc1ccnc(NC(=O)CCC(=O)c2cc(C)sc2C)c1`, the solubility (kinetic) amounted to 3.7 µg/mL (≈ 12.2 µM). For `CCC(C)NC(=O)CN1c2cccc3cccc(c23)S1(=O)=O` (configuration not stated) the value was 35.5 µg/mL (≈ 111 µM); for `O=C(CNC(=O)c1ccc(Br)o1)NCCc1ccc(F)cc1`, 39.8 µg/mL (≈ 108 µM). In the case of `CC(=O)Oc1ccccc1-n1c(C)nc(=O)c(-c2ccccc2)c1C` it was 48.9 µg/mL (≈ 146 µM). For `CN(Cc1cccnc1)C(=O)CNC(=O)COc1ccccc1` the value was over 47 µg/mL. `CCOC(=O)C1=C(C)NC(=O)NC1c1c(OC)ccc2ccccc12` (configuration not stated) registered a kinetic solubility of 0.7 µg/mL (≈ 2.06 µM). In turn, `O=C(Nc1ccccn1)C(=O)Nc1ccccn1` gave a solubility (kinetic) of 35.6 µg/mL (≈ 147 µM).

Turning to `COc1ccc(S(=O)(=O)N2CCOCC2)cc1NC(=O)CCCOc1ccccc1`, the kinetic solubility stood at 40.9 µg/mL (≈ 94.1 µM). In the case of `COc1cccc(OC)c1C(=O)NCCOc1cc(C)cc(C)c1` it was 28.3 µg/mL (≈ 85.9 µM); in that of `N=c1oc2ccccc2cc1C(=O)NC1CCCCCC1`, 15.9 µg/mL (≈ 55.9 µM); in that of `C=CCNC(=O)CN1CCC(c2nc3ccccc3[nH]2)CC1`, over 44.8 µg/mL.

Take `C#CCOC(=O)Nc1cnccc1C(F)(F)F`: the solubility (kinetic) was over 36.6 µg/mL.
